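Test compounds were applied to cells in 96-well plates for 48 hours at 5 doses. GI50 marks 50% less growth.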 Calls of active or inactive are those of the source. Cut-off read from the data, not from the text of the source: active = GI50 up to about 1.1 µM and inactive = higher.
Experiments:
Experiment in all cases: inhibition of tumour cell growth, NCI panel, 48 h
[1] = tested on: SK-MEL-2
[2] = tested on: K562
[3] = tested on: CAKI-1
[4] = tested on: SK-OV-3
[5] = tested on: ACHN
[6] = tested on: DMS-273
[7] = tested on: A549
[8] = tested on: NCI-H522
[9] = tested on: NCI-H226
[10] = tested on: KM12
[11] = tested on: SF-268
[12] = tested on: HCT-15
[13] = tested on: RXF 393
[14] = tested on: LOX IMVI
[15] = tested on: OVCAR-5
[16] = tested on: UACC-62

Compound	GI50 [1]	GI50 [2]	GI50 [3]	GI50 [4]	GI50 [5]	GI50 [6]	GI50 [7]	GI50 [8]	GI50 [9]	GI50 [10]	GI50 [11]	GI50 [12] [µM]	GI50 [13]	GI50 [14]	GI50 [15]	GI50 [16]
[O-][n+]1c2cc(CBr)c(CBr)cc2[n+]([O-])c2c(O)cccc21	2.22 µM (inactive)	1.22 µM (inactive)	2.87 µM (inactive)	4.86 µM (inactive)	1.81 µM (inactive)	1.68 µM (inactive)	3.1 µM (inactive)	0.538 µM (active)	6.61 µM (inactive)	1.9 µM (inactive)	2.84 µM (inactive)	1.56	1.76 µM (inactive)	1.35 µM (inactive)	1.95 µM (inactive)	1.79 µM (inactive)
COc1ccccc1OCC(COC(=O)Nc1ccc(C)cc1)OC(=O)Nc1ccc(C)cc1 (configuration not stated)	13.8 µM (inactive)	18.5 µM (inactive)	13.1 µM (inactive)	24.7 µM (inactive)	21.8 µM (inactive)	16.7 µM (inactive)	57.1 µM (inactive)	16.1 µM (inactive)	24.7 µM (inactive)	20.6 µM (inactive)	19.5 µM (inactive)	15.8	7.19 µM (inactive)	15.8 µM (inactive)	21.8 µM (inactive)	15.3 µM (inactive)
CC1=CCN(c2ccccn2)OC1c1ccccc1 (configuration not stated)	> 100 µM (inactive)	> 100 µM (inactive)	> 100 µM (inactive)	> 100 µM (inactive)	> 100 µM (inactive)	> 100 µM (inactive)	> 100 µM (inactive)	54.6 µM (inactive)	> 100 µM (inactive)	> 100 µM (inactive)	> 100 µM (inactive)	> 100	62.8 µM (inactive)	> 100 µM (inactive)	59.8 µM (inactive)	> 100 µM (inactive)
COC(=O)/C(=N\N)C(C(=O)C(=O)Nc1nnc(S)[nH]1)c1nc2ccc([N+](=O)[O-])cc2nc1O (configuration not stated)	> 100 µM (inactive)	> 100 µM (inactive)	> 100 µM (inactive)	> 100 µM (inactive)	> 100 µM (inactive)	> 100 µM (inactive)	> 100 µM (inactive)	> 100 µM (inactive)	> 100 µM (inactive)	> 100 µM (inactive)	> 100 µM (inactive)	> 100	> 100 µM (inactive)	> 100 µM (inactive)	> 100 µM (inactive)	> 100 µM (inactive)
CCOc1ccccc1NC(=O)C(=O)C(C(=O)c1ccc2ccccc2c1)C1OC(=O)c2ccccc21 (configuration not stated)	13.2 µM (inactive)	17.1 µM (inactive)	10.4 µM (inactive)	15.4 µM (inactive)	29.2 µM (inactive)	12.3 µM (inactive)	21.4 µM (inactive)	11.8 µM (inactive)	1.82 µM (inactive)	20.8 µM (inactive)	5.86 µM (inactive)	14.2	2.26 µM (inactive)	12.5 µM (inactive)	21.2 µM (inactive)	8.77 µM (inactive)
Nc1nc[n+](Cc2ccccc2)c2ncn(Cc3ccccc3)c12	> 100 µM (inactive)	37.7 µM (inactive)	54.3 µM (inactive)	> 100 µM (inactive)	> 100 µM (inactive)	> 100 µM (inactive)	> 100 µM (inactive)	81.3 µM (inactive)	> 100 µM (inactive)	68.9 µM (inactive)	> 100 µM (inactive)	> 100	20.2 µM (inactive)	> 100 µM (inactive)	> 100 µM (inactive)	32.4 µM (inactive)
O=C1NC(=S)NC(=O)C1=CC1CC1	> 100 µM (inactive)	> 100 µM (inactive)	> 100 µM (inactive)	> 100 µM (inactive)	> 100 µM (inactive)	> 100 µM (inactive)	> 100 µM (inactive)	> 100 µM (inactive)	> 100 µM (inactive)	> 100 µM (inactive)	> 100 µM (inactive)	> 100	> 100 µM (inactive)	> 100 µM (inactive)	> 100 µM (inactive)	> 100 µM (inactive)
